Patent publication US20110257236A1, “SOLID SOLUTION OF VALINE, ISOLEUCINE, LEUCINE AND ITS MANUFACTURING METHOD” (AJINOMOTO CO., INC., priority 2008, published 2011)

Assays:
[1] = Dissolution speed: time until 1 g of powder dissolves completely in 100 ml warm water at 50° C., stirring 550 rpm; format: physicochemical
Method: (§1) As to the dissolution speed, 1 g of powder was dropped into 100 ml of warm water at 50° C. with stirring at a number of revolutions of 550 rpm (using a 200 ml beaker and a magnetic stirrer), and the time until dissolving completely was measured. The time was employed as an indicator of the dissolution speed.
as §1, with “C. or water at ordinary temperature” for “C.”, “A mean value of twice measurement” for “The time”

[2] = Dissolution speed: time until 1 g of powder dissolves completely in 100 ml water at ordinary temperature, stirring 550 rpm; format: physicochemical; conditions: Table 4, 25 degrees (ordinary temperature), 1 g in 100 ml water, mean of twice measurement
Method: as §1, with “C. or water at ordinary temperature” for “C.”, “A mean value of twice measurement” for “The time”

[3] = Mean particle size D50 by digital image analysis type particle size distribution meter; format: physicochemical
From the text: The size of the solid solution of the invention is preferably 50-1000 μm as a mean particle size. The mean particle size as used herein refers to the number median particle size of sieve diameter D50. In view of dissolution speed taking melting ability in the mouth of solid foods and usability as solid beverages into consideration, too large crystals are unsuitable for practical use. Too small crystals are also unsuitable, due to being choked by dusting upon eating and dusting loss upon manufacturing. As to the mean particle size, D50 was measured by a digital image analysis type particle size distribution meter (Ana Tec As Norway). […]

[4] = at 20° C.; water; cited from earlier work
[5] = Table 1, 1 g in 100 ml warm water at 50° C., time until dissolving completely
[6] = Table 5, 50 degrees, 1 g in 100 ml warm water, mean of twice measurement

| Dissolution Speed [1, 5] [s] | Dissolution Speed [1, 6] [s] | Dissolution Speed [2] [s] | Mean Particle Size ([3]; Table 1) [μm] | Mean Particle Size ([3]; Table 4) [μm] | Mean Particle Size ([3]; Table 5) [μm] | Structure (SMILES) | solubility [4] [g] |
| --- | --- | --- | --- | --- | --- | --- | --- |
| 118 | 117.5 | 142 | 210 | 210 | 210 | CC(C)[C@H](N)C(=O)O [Val, L-valine] | 5.75 |
| 129 | 128.5 | 287 | 400 | 400 | 400 | CC[C@H](C)[C@H](N)C(=O)O [Ile, L-isoleucine] | 4.02 |
| 130 | 130 | 320 | 280 | 280 | 280 | CC(C)C[C@H](N)C(=O)O [Leu, L-leucine] | 2.38 |
